Tested on: 521955-158-R2-J5-PDC complex spheroid viability
Assay: Anticancer human tumor 521955-158-R2-J5-PDC patient-derived pancreatic carcinoma cell line growth inhibition
Conditions: for IC50: curve of first compound; for viability, T/C: stronger effect = lower value
In short: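 Multicellular complex spheroids of tumor cells with human endothelial cells (HUVEC) and mesenchymal stem cells; the LSD1 inhibitor iadademstat was combined with standard-of-care or investigational agents. Top concentration at or near clinical Cmax, half-log dilutions; final DMSO ≤0.25%.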

[1] = second compound 0.1 µM, first compound 0.000316 µM
[2] = second compound 0.1 µM, first compound 0.001 µM
[3] = second compound 0.1 µM, first compound 0.00316 µM
[4] = second compound 0.1 µM, first compound 0.01 µM
[5] = second compound 0.1 µM, first compound 0.0316 µM
[6] = second compound 0.1 µM, first compound 0.1 µM
[7] = second compound 0.316 µM, first compound 0.000316 µM
[8] = second compound 0.316 µM, first compound 0.001 µM
[9] = second compound 0.316 µM, first compound 0.00316 µM
[10] = second compound 0.316 µM, first compound 0.01 µM
[11] = second compound 0.316 µM, first compound 0.0316 µM
[12] = second compound 0.316 µM, first compound 0.1 µM
[13] = second compound 1 µM, first compound 0.000316 µM
[14] = second compound 1 µM, first compound 0.001 µM
[15] = second compound 1 µM, first compound 0.00316 µM
[16] = second compound 1 µM, first compound 0.01 µM
[17] = second compound 1 µM, first compound 0.0316 µM
[18] = second compound 1 µM, first compound 0.1 µM
[19] = second compound 3.16 µM, first compound 0.000316 µM
[20] = second compound 3.16 µM, first compound 0.001 µM
[21] = second compound 3.16 µM, first compound 0.00316 µM
[22] = second compound 3.16 µM, first compound 0.01 µM
[23] = second compound 3.16 µM, first compound 0.0316 µM
[24] = second compound 3.16 µM, first compound 0.1 µM
[25] = second compound 10 µM, first compound 0.000316 µM
[26] = second compound 10 µM, first compound 0.001 µM
[27] = second compound 10 µM, first compound 0.00316 µM
[28] = second compound 10 µM, first compound 0.01 µM
[29] = second compound 10 µM, first compound 0.0316 µM
[30] = second compound 10 µM, first compound 0.1 µM
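Also: spheroids exposed to agents for seven days.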
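For viability, T/C in this document: percent of DMSO vehicle control luminescence viability.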

| Compound | IC50 (second compound 0.1 µM) | IC50 (second compound 0.316 µM) | IC50 (second compound 1 µM) | IC50 (second compound 3.16 µM) | IC50 (second compound 10 µM) | viability, T/C [3] | viability, T/C [4] | viability, T/C [5] | viability, T/C [6] | viability, T/C [9] | viability, T/C [10] | viability, T/C [11] | viability, T/C [12] | viability, T/C [15] | viability, T/C [16] | viability, T/C [17] | viability, T/C [18] | viability, T/C [21] | viability, T/C [22] | viability, T/C [23] | further results |
| --- | --- | --- | --- | --- | --- | --- | --- | --- | --- | --- | --- | --- | --- | --- | --- | --- | --- | --- | --- | --- | --- |
| CC(C)CC(NC(=O)C(Cc1ccccc1)NC(=O)c1cnccn1)B(O)O (stereo not given) + NC1CC1c1ccc(-c2cccc(O)c2)cc1 | 0.538 nM | 0.504 nM | 0.515 nM | 0.462 nM | 0.336 nM | 0.11% | 0.08% | 0.09% | 0.26% | 0.17% | 0.18% | 0.1% | 0.3% | 0.24% | 0.04% | 0.06% | 0.28% | 0.15% | 0.08% | 0.07% | viability, T/C [1]: 92.2%; viability, T/C [2]: 0.66%; viability, T/C [7]: 83.8%; viability, T/C [8]: 0.44%; viability, T/C [13]: 86.6%; viability, T/C [14]: 0.35%; viability, T/C [19]: 74.4%; viability, T/C [20]: 0.52%; viability, T/C [24]: 0.2%; viability, T/C [25]: 52.8%; viability, T/C [26]: 0.4%; viability, T/C [27]: 0.22%; viability, T/C [28]: 2.1%; viability, T/C [29]: 0.17%; viability, T/C [30]: 1.31% |
| CC(C)CC(NC(=O)CNC(=O)c1cc(Cl)ccc1Cl)B1OC(=O)CC(CC(=O)O)(C(=O)O)O1 (stereo not given) + NC1CC1c1ccc(-c2cccc(O)c2)cc1 | 5.71 nM | 5.63 nM | 5.49 nM | 5.37 nM | 4.75 nM | 86.8% | 15.1% | 0.96% | 0.46% | 89.2% | 15.8% | 0.53% | 0.18% | 87.3% | 13% | 0.98% | 0.23% | 83.8% | 12.3% | 0.68% | viability, T/C [1]: 83.1%; viability, T/C [2]: 91.7%; viability, T/C [7]: 73.4%; viability, T/C [8]: 90.5%; viability, T/C [13]: 81.3%; viability, T/C [14]: 83.6%; viability, T/C [19]: 76.3%; viability, T/C [20]: 86.2%; viability, T/C [24]: 0.23%; viability, T/C [25]: 87.6%; viability, T/C [26]: 93.7%; viability, T/C [27]: 72.7%; viability, T/C [28]: 8.29%; viability, T/C [29]: 0.39%; viability, T/C [30]: 0.24% |
| COc1cc(Nc2ncc3c(n2)-c2ccc(Cl)cc2C(c2c(F)cccc2OC)=NC3)ccc1C(=O)O + NC1CC1c1ccc(-c2cccc(O)c2)cc1 | > 1000 nM | > 1000 nM | > 1000 nM | > 1000 nM | > 1000 nM | 67.5% | 73.7% | 69.4% | 67.2% | 65.9% | 78.9% | 62.1% | 72.1% | 75.1% | 71.4% | 65.6% | 82.5% | 66.4% | 72% | 81.8% | viability, T/C (second compound 0.1 µM, first compound 0.316 µM): 66.2%; viability, T/C (second compound 0.1 µM, first compound 1 µM): 61.2%; viability, T/C (second compound 0.316 µM, first compound 0.316 µM): 81.7%; viability, T/C (second compound 0.316 µM, first compound 1 µM): 59.3%; viability, T/C (second compound 1 µM, first compound 0.316 µM): 70.8%; viability, T/C (second compound 1 µM, first compound 1 µM): 71.7%; viability, T/C [24]: 72.2%; viability, T/C (second compound 3.16 µM, first compound 0.316 µM): 75.4%; viability, T/C (second compound 3.16 µM, first compound 1 µM): 66%; viability, T/C [27]: 69.5%; viability, T/C [28]: 69.5%; viability, T/C [29]: 67.6%; viability, T/C [30]: 63.1%; viability, T/C (second compound 10 µM, first compound 0.316 µM): 57.5%; viability, T/C (second compound 10 µM, first compound 1 µM): 71.6% |

Reference: PubChem BioAssay AID1918937 (Molecular Pharmacology Branch, DTP, NCI, 2023)
